In article PMC8397425, “A Strategy to Conjugate Bioactive Fragments to Cytotoxic Diiron Bis(cyclopentadienyl) Complexes” (Organometallics, 2021):
“And” between values parts separate entries of the source, which are not always exact repeats. Equal entries are not always repeated. Marks after values point to notes of the source that are not given here.

Assays:
[1] = Solubility in D2O by 1H NMR; assay type: physicochemical; details: Me2SO2 internal standard, T = 21 °C
Description: (§1) The solubility of the complexes in D2O was assessed using ^1H NMR spectroscopy (see Table 1 and the Experimental Section for details). […] Data from the literature for the related nonfunctionalized complexes [2′,3′]CF3SO3 are compiled in Table 1 for comparison.[11] The octanol–water partition coefficients (Log Pow) were measured using a UV–vis method and fall within the −0.2 to +1.2 range (Table 1). […] For instance, Log Pow values of 1.07 and 0.65 are obtained for the geometric isomers [9]CF3SO3 and [10]CF3SO3, respectively.

[2] = Octanol–water partition coefficient (shake-flask, UV–vis); assay type: physicochemical; details: T = 21 °C
Description: as §1, with “respectively. […]” for “respectively.”
Determination of partition coefficients (Log P ow)
Partition coefficients ( Pow; IUPAC: K D partition constant, 7,8 defined as Pow = corg/caq, where corg and caq are the molar concentrations of the selected compound in the organic and aqueous phases, respectively, were determined by the shake-flask method and UV-Vis measurements. 9 Values of Log Pow for diiron complexes are compiled in Table 2. All the operations were carried out at 21±1 °C. De -ionised water and 1-octanol were mixed and vigorously stirred for 24 hours at room temperature to allow saturation of both phases, then separated by centrifugation and used for the following experiments. A solution of the selected Fe compound in the organic phase (V = 5 mL) was prepared and its UV-Vis spectrum was recorded. An aliquot of the solution (Vorg = 1.5 mL) was then transferred into a test tube and the aqueous phase (Vorg = Vaq = 1.5 mL) was added. The mixture was vigorously stirred for 20 minutes and the resulting emulsion was centrifuged (5000 rpm, 10’). […]
the organic phase was recorded. The procedure was repeated three times for each compound. The partition coefficient was then calculated as PPow = AorgA0,org − Aorg, where A0,org and Aorg are the absorbance values in the organic phase, respectively before and after mixing with the aqueous phase. 9 UV-Vis measurements were carried out using 1 cm PMMA cuvettes. The wavelength of the maximum absorption of each compound was used for UV-Vis quantification.

[3] = Stability in D2O/DMSO at 37 °C by 1H NMR; assay type: physicochemical; details: 24 h at 37 °C
Description: Conversely, [3–7]CF3SO3, containing either {Aryl–OCOAsp} or {Aryl-NHCOAsp} moieties, were stable under the same conditions. […] Complete conversion into the bis-hydroxide [8^2OH]^+ was achieved within 72 h. Similarly, [9,10]CF3SO3 undergo activation of the {C–Cl} bonds to give mixtures of the partially Cl/OH substituted species [9^OH]^+ and [10^OH]^+ and the fully substituted species [9^2OH]^+ and [10^2OH]^+.

[4] = tested on: Human Ovarian Carcinoma Cisplatin Resistant (A2780cisR) cell line; test: MTT cytotoxicity, A2780cisR; assay type: cell-based; details: 72 h exposure, mean ± SD
Source text: (§2) Human ovarian carcinoma (A2780 and A2780cisR) cell lines were obtained from the European Collection of Cell Cultures. The Human Embryonic Kidney 293T (HEK 293T) cell line was obtained from the ATCC (Sigma, Buchs, Switzerland). Penicillin–streptomycin, RPMI 1640 GlutaMAX (where RPMI = Roswell Park Memorial Institute), and DMEM GlutaMAX media (where DMEM = Dulbecco’s modified Eagle medium) were obtained from Life Technologies, and fetal bovine serum (FBS) was obtained from Sigma. The cells were cultured in RPMI 1640 GlutaMAX (A2780 and A2780cisR) and DMEM GlutaMAX (HEK 293T) media containing 10% heat-inactivated FBS and 1% penicillin–streptomycin at 37 °C and CO2 (5%). The A2780cisR cell line was routinely treated with cisplatin (2 μM) in the media to maintain cisplatin resistance. The cytotoxicity was determined using the 3-(4,5-dimethyl-2-thiazolyl)-2,5-diphenyl-2H-tetrazolium bromide (MTT) assay.[42] Cells were seeded in flat-bottomed 96-well plates as a suspension in a prepared medium (100 μL aliquots and approximately 4300 cells/well) and preincubated for 24 h. Stock solutions of compounds were prepared in DMSO and were diluted in the medium. The solutions were sequentially diluted to give a final DMSO concentration of 0.5% and a final compound concentration range of 0–200 μM. Cisplatin was tested as a positive (0–100 μM) control. The compounds were placed in the preincubated 96-well plates in 100 μL aliquots, and the plates were incubated for a further 72 h. MTT (20 μL, 5 mg/mL in Dulbecco’s phosphate buffered saline) was placed in the cells, and the plates were incubated for a further 4 h. The culture medium was aspirated, and the purple formazan crystals, formed by the mitochondrial dehydrogenase activity of vital cells, were dissolved in DMSO (100 μL/well). The absorbance of the resulting solutions, directly proportional to the number of surviving cells, was quantified at 590 nm using a SpectroMax M5e multimode microplate reader (using SoftMax Pro software, version 6.2.2). The percentage of surviving cells was calculated from the absorbance of wells corresponding to the untreated control cells. The reported IC50 values are based on the means from two independent experiments, each comprising four tests per concentration level.

[5] = tested on: Human Embryonic Kidney 293T (HEK 293T) cell line; test: MTT cytotoxicity, HEK 293T; assay type: cell-based; details: 72 h exposure, mean ± SD
Source text: as §2

A2780 cells = test: Intracellular ROS production, DCFH-DA assay; assay type: cell-based, human; details: for ROS production compared to H2O2 positive control: 10 μM compound vs H2O2 100 μM, 24 h; for intracellular ROS levels: 10 μM, up to 24 h, DCFH-DA fluorescence
Description: In order to shed light on the possible mechanism of action of the biofunctionalized diiron complexes, a series of complementary studies were performed. It was previously shown that the diiron vinyliminium structural motif induces ROS production, possibly associated with more than one mechanism: (1) monoelectron reduction of the complex favored by its net cationic charge; (2) fragmentation into a monoiron derivative and atomic iron; […] After overnight incubation, the cells were treated following the manufacturer’s protocol. […] Stock solutions of compounds were prepared as described above; cells incubated with equal amounts of DMSO in supplemented RPMI were used as a control. The fluorescence was measured up to 24 h with an excitation wavelength of 485 nm and with a 535 nm emission filter by Multilabel Counter (PerkinElmer, Waltham, MA, USA). The measurements were performed in triplicate, and results were reported as mean ± SD. Statistical differences were examined using one-way analysis of variance (ANOVA), and a Tukey test was used for post hoc analysis.

| solubility [1] | Log Pow [2] | stability (%), residual percent of complex ([3]; D2O/DMSO 2/1 v/v) [%] | stability (%), total percentage of diiron complexes with a chlorambucil-like group ([3]; D2O/DMSO 1/1 v/v) | Substance | IC50 [4] [µM] | IC50 [5] [µM] | ROS production compared to H2O2 positive control (A2780 cells) | intracellular ROS levels (A2780 cells) |
| --- | --- | --- | --- | --- | --- | --- | --- | --- |
| <1 × 10^–4 mol L^–1 | 1.06 ± 0.04 | 59 | – | [Fe2Cp2(CO)(μ-CO){μ-η^1:η^3-Cγ(3-C6H4OC(=O)C6H4OC(=O)Me)CβHCαNMe(Xyl)}]CF3SO3 [[4]CF3SO3] | 2.6 ± 0.4 | 3.8 ± 0.7 | ROS production higher than that recorded for H2O2 | Significant intracellular ROS levels |
| <1 × 10^–4 mol L^–1 | 1.07 and 1.07 ± 0.05 | – | 88 ^b % | [Fe2Cp2(CO)(μ-CO){μ-η^1:η^3-Cγ(3-C6H4NHC(=O)(CH2)3C6H4N(CH2CH2Cl)2)CβHCαNMe2}]CF3SO3 [[9]CF3SO3] | 3.8 ± 0.3 | 9 ± 3 | ROS production higher than that recorded for H2O2 | Significant intracellular ROS levels |
